Experiment: Human HepG2 cell viability assay in 384 well format
Type: toxicity, cell-based
Set-up: dose 125 nL, time 70.5 hour; cytotoxicity at 70.5 h: concentration not given beside the values
Settings: HepG2 cells, read-out: Inhibition

Row | SMILES | cytotoxicity at 70.5 h [%]
1 | Cc1[nH]nc(-c2ccc(F)cc2)c1CC(=O)NCC1CCOCC1 | -9.72
2 | COc1ccc(N(CCC(N)=O)C(=O)CSc2ccc(Cl)cc2)cc1 | -0.942
3 | CCc1cnc(N2CCC(=O)N(CC3CC3)C(C(C)C)C2)nc1 (stereo unspecified) | 8.36
4 | Cc1ccc(C(=O)Nc2cn[nH]c2)cn1 | -1.81
5 | CC(C)n1nc(Cn2cccn2)c2c1CN(CC1CCOC1)C2 (stereo unspecified) | -4.31
6 | O=C1NCC(C(=O)Nc2ccc(=O)n(Cc3ccccc3Cl)c2)N1 (stereo unspecified) | -21.3
7 | CC1CCN(Cc2cnc(S(=O)(=O)CC3CC3)n2CC2CCCO2)CC1 (stereo unspecified) | 11.8
8 | Cc1cnc(NC(C)Cc2cnccn2)nc1N(C)C (stereo unspecified) | -4.28
9 | Cc1csc(CCNC(=O)C2CCCN(C3CCOCC3)C2)n1 (stereo unspecified) | -11.1
10 | Cc1cccc(CN2CC[C@@H]3[C@@H]2CCN3C(=O)Cc2ccsc2)n1 | -22.6
11 | O=C(c1n[nH]cc1Cl)N1CCSCC1 | -9.46
12 | Cc1nnc(CN2CCCC2c2ccc(Cl)c(Cl)c2)o1 (stereo unspecified) | -1.84
13 | CC(C)c1nnc2sc(CC3CCS(=O)(=O)CC3)nn12 | -8.54
14 | Cc1cc(N(C)C)nc(N2CCn3c(nnc3C(C)C)C2)n1 | 13.6
15 | CC(C)CC(=O)N1CC[C@H]2N(C)CC[C@@]2(C(=O)Nc2ccccc2)CC1 | 36.5
16 | Cc1nnc(CN(C)Cc2nc3c(s2)CCCC3)o1 | -5.09
17 | CCCN1C[C@H]2CC[C@@H]1CN(C(=O)Cn1c(C)cc(C)nc1=O)C2 | -14.9
18 | CCc1nc(C)c([C@H]2CN(C)C[C@@H]2C(=O)NCCc2cnccn2)[nH]1 | -5.77
19 | CC(C)(C)c1nccc(N2CCC(OCCN3CCCCC3)C2)n1 (stereo unspecified) | -6.69
20 | Cc1ccc(F)cc1S(=O)(=O)NCc1cccc(CS(C)(=O)=O)c1 | -6.95
21 | COCCN1CCc2nc(SCc3ccc(F)cc3)[nH]c(=O)c2C1 | 28.7
22 | CC(=O)N1CCCC1c1ccnc(Nc2cncnc2)n1 (stereo unspecified) | -15.4
23 | CS(=O)(=O)NCc1cn2c(n1)CN(Cc1cccnc1)CC2 | 9.87

Row | SMILES | cytotoxicity at 70.5 h [%]
24 | COCc1ncn2c1CN(S(=O)(=O)c1ccc(C)cc1)CC2 | -0.994
25 | O=C(COc1coc(CN2CCCCC2)cc1=O)Nc1cccc(Cl)c1 | -7.03
26 | CCS(=O)(=O)CCNCc1cc(O)c2cc(C)cc(C)c2n1 | 0.215
27 | CN1CC2(CCN(Cc3cc(Cl)ccc3OCC(=O)O)CC2)OC1=O | -8.9
28 | Cc1cnc(CN2CCOC(Cn3nc(C)nc3C)C2)cn1 (stereo unspecified) | 18.6
29 | Cc1c(C(=O)O)cnn1-c1ccc(-c2nc(C3CC3)no2)cn1 | -14
30 | N#Cc1ccccc1CN1CCC(c2nccn2CC(N)=O)CC1 | -4.95
31 | NC(=O)c1cccc(CNC/C=C/c2ccccc2)c1 | 12.6
32 | CCn1c(CN2CCCC2)nnc1C1CCN(Cc2ccccn2)CC1 | 18.4
33 | Cc1nc(C)n(CC2CCCN2Cc2cn3ccsc3n2)n1 (stereo unspecified) | 3.39
34 | O=C1NCCCCC1NCc1csc(-c2ccccn2)n1 (stereo unspecified) | -12.2
35 | c1cnc(NCc2cncc3c2CCN(Cc2ccsc2)C3)nc1 | -7.81
36 | O=C(c1cc(F)ccc1O)N1CCN(C(=O)C2CCC2)CC1 | -3.26
37 | COCCn1ccc(NC(=O)Nc2ccccc2)n1 | -2.83
38 | O=C(O)c1cc(S(=O)(=O)Nc2ccccc2)cc2c1OCCO2 | 4.5
39 | CCOCC(O)CN1CCN(C(=O)Cc2ccccc2C)CC1 (stereo unspecified) | -1.93
40 | CCOCC1CN(S(C)(=O)=O)Cc2nn(C)cc21 (stereo unspecified) | -3.61
41 | OCC1(CC2CC2)CCCN(Cc2cnc(C3CCCCC3)nc2)C1 (stereo unspecified) | -5.05
42 | COCC(=O)N1CCC2(CC1)CN(c1ccsc1)C(=O)CO2 | -8.62
43 | Cc1nn(C)c(N(C)C)c1CNCc1cccc(CN(C)C(C)C)c1 | -9.1
44 | Cc1cnc(N)c(C(=O)C2CCN(C(=O)C3CCC3)CC2)c1 | 11.3
45 | CC(C)COC1CC2(CCN(C(=O)Cc3ccccn3)CC2)C1 | -11.8
46 | CC(=O)Nc1ncc(S(=O)(=O)Nc2cccc(F)c2)s1 | -8.84

Reference: ChEMBL document CHEMBL3507680, “University of Dundee, Gates Library screen for HepG2 cell viability”
